{
  "source": "patent US20190021380A1",
  "about": "(priority 2014, published 2019)",
  "key": {"cat T1R1/T1R3 receptor": {"target": "cat T1R1/T1R3 receptor (Felis catus, UniProt E3UMS2)", "experiment": "cell-based", "conditions": "for function as activators of T1R1/T1R3: in the presence of alanine, in words; for Max resp % of IMP: hek293 cells", "text": "(§1) HEK293 cells that stably express T1R3 and inducibly express T1R1 were exposed to nucleotide derivatives alone or in combination with one or more amino acids and/or one or more nucleotides to activate the umami receptor. Activation of the T1R1/T1R3 receptor was detected by a change in intracellular calcium levels using a calcium sensitive fluorescent dye and/or a luminescent reporter system. Cells that express T1R3 but not T1R1 were used as a control. A FLIPR® Tetra or a FlexStation® 3 was used for data capture."}, "T1R1/T1R3 receptor": {"target": "T1R1/T1R3 receptor (Felis catus, UniProt E3UMS2)", "experiment": "cell-based", "assay_type": "cell-based", "text": "as §1, with “transmembrane compounds” for “nucleotide derivatives”, “dye.” for “dye and/or a luminescent reporter system.”\nIn each experiment, serial dilutions of up to 10 mM of the transmembrane compound were added to the T1R1/T1R3-expressing cells."}, "[1]": {"conditions": "in the presence of 20 mM alanine, read-out: EC50-with Ala"}, "[2]": {"conditions": "in the presence of 20 mM alanine"}},
  "note": "Where a name gives a salt, the structure may show the parent alone. Read-outs that look alike come from different tables or passages of the source.",
  "data": [
    {"smiles": "O=P(O)(O)OC[C@H]1O[C@@H](n2cnc3c2ncn2ccnc32)[C@H](O)[C@@H]1O", "note": "[1,N6-Ethenoadenosine-5′-O-monophosphate]", "values": [
      {"measurement": "Thres", "setting": "cat T1R1/T1R3 receptor", "result": 0.010, "unit": "mM"}
    ]},
    {"smiles": "Nc1nc(Cl)c2ncn(C3OC(COP(=O)(O)O)C(O)C3O)c2n1", "note": "(stereo not shown) [2-amino-6-chloropurineriboside-5′-O-monophosphate]", "values": [
      {"measurement": "Activity", "setting": "cat T1R1/T1R3 receptor", "result": "active"},
      {"measurement": "Thres", "setting": "cat T1R1/T1R3 receptor", "result": 0.00013, "unit": "mM"},
      {"measurement": "Threshold", "setting": "cat T1R1/T1R3 receptor", "result": 0.00013, "unit": "mM"}
    ]},
    {"smiles": "Nc1ncnc2c1ncn2C1CC(O)C(COP(O)(O)=S)O1", "note": "(stereo not shown) [2′-Deoxyadenosine-5′-O-monophosphorothioate]", "values": [
      {"measurement": "Thres", "setting": "cat T1R1/T1R3 receptor", "result": 0.015, "unit": "mM"}
    ]},
    {"smiles": "Nc1nc2c(ncn2[C@@H]2O[C@H](COP(O)(O)=S)C(O)C2O)c(=O)[nH]1", "note": "(stereo partly shown) [Guanosine-5′-monophosphorothioate]", "values": [
      {"measurement": "Thres", "setting": "cat T1R1/T1R3 receptor", "result": 0.0025, "unit": "mM"},
      {"measurement": "function as activators of T1R1/T1R3", "setting": "cat T1R1/T1R3 receptor", "result": "activators of T1R1/T1R3"}
    ]},
    {"smiles": "O=c1nc[nH]c2c1ncn2C1O[C@H](COP(=O)(O)OP(=O)(O)OP(=O)(O)O)[C@@H](O)[C@H]1O", "note": "(stereo partly shown) [inosine triphosphate (ITP) trisodium salt]", "values": [
      {"measurement": "Max resp ΔF/F", "setting": "cat T1R1/T1R3 receptor", "result": "0.3 ΔF/F"},
      {"measurement": "Max resp. (ΔF/F)", "setting": "cat T1R1/T1R3 receptor", "result": "0.3 ΔF/F"},
      {"measurement": "Thres", "setting": "cat T1R1/T1R3 receptor", "result": 0.02, "unit": "mM"},
      {"measurement": "Threshold", "setting": "cat T1R1/T1R3 receptor", "result": 0.02, "unit": "mM"}
    ]},
    {"smiles": "O=c1[nH]c(=O)c2ncn([C@@H]3O[C@H](COP(=O)(O)O)[C@@H](O)[C@H]3O)c2[nH]1", "note": "[xanthosine monophosphate, reference compound]", "values": [
      {"measurement": "Thres", "setting": "cat T1R1/T1R3 receptor", "result": 0.025, "unit": "mM"}
    ]},
    {"smiles": "NC(=O)c1ncn(C2OC(COP(=O)(O)O)C(O)C2O)c1N", "note": "(stereo not shown)", "values": [
      {"measurement": "EC50", "setting": "cat T1R1/T1R3 receptor; EC50-with Ala (mM)", "result": "> 1", "unit": "mM"}
    ]},
    {"smiles": "Nc1nc2c(ncn2[C@@H]2O[C@H](COP(=O)(O)O)[C@@H](O)[C@H]2O)c(=S)[nH]1", "note": "[6-thioguanosine-5′-O-monophosphate]", "values": [
      {"measurement": "EC50", "setting": "cat T1R1/T1R3 receptor; [1]", "result": 0.0009, "unit": "mM"},
      {"measurement": "function as activators of T1R1/T1R3", "setting": "cat T1R1/T1R3 receptor", "result": "activators of T1R1/T1R3"}
    ]},
    {"smiles": "O=c1ccn([C@@H]2O[C@H](COP(=O)(O)O)[C@@H](O)[C@H]2O)c(=O)[nH]1", "note": "[UMP, uridine monophosphate, reference compound]", "values": [
      {"measurement": "EC50", "setting": "cat T1R1/T1R3 receptor; EC50-with Ala (mM)", "result": "> 30", "unit": "mM"}
    ]},
    {"smiles": "Nc1nc2c(ncn2[C@@H]2O[C@H](COP(=O)(O)OP(=O)(O)OP(=O)(O)O)[C@@H](O)[C@H]2O)c(=O)[nH]1", "note": "[Guanosine 5′-triphosphate]", "values": [
      {"measurement": "Activity", "setting": "cat T1R1/T1R3 receptor", "result": "active"},
      {"measurement": "Thres", "setting": "cat T1R1/T1R3 receptor", "result": 0.175, "unit": "mM"}
    ]},
    {"smiles": "O=C(Nc1ncnc2c1ncn2[C@@H]1O[C@H](COP(=O)(O)O)[C@@H](O)[C@H]1O)c1ccccc1", "values": [
      {"measurement": "Thres", "setting": "cat T1R1/T1R3 receptor", "result": 0.3, "unit": "mM"},
      {"measurement": "EC50", "setting": "cat T1R1/T1R3 receptor; EC50 (mM), + Alanine (20 mM), Table 15", "result": "> 1", "unit": "mM"},
      {"measurement": "Max resp % of IMP", "setting": "cat T1R1/T1R3 receptor", "result": "105.6 % of IMP"}
    ]},
    {"smiles": "NC1NC(=O)c2ncn([C@H]3O[C@@H](COP(=O)(O)O)[C@H](O)[C@@H]3O)c2N1", "note": "(stereo partly shown)", "values": [
      {"measurement": "EC50", "setting": "cat T1R1/T1R3 receptor; [1]", "result": 0.03, "unit": "mM"}
    ]},
    {"smiles": "Nc1ncnc2c1ncn2C1OC(COP(=O)(O)OS(=O)(=O)O)C(O)C1O", "note": "(stereo not shown) [Adenosine 5′-phosphosulfate sodium salt, Adenosine 5′-phosphosulfate]", "values": [
      {"measurement": "Thres", "setting": "cat T1R1/T1R3 receptor", "result": 0.008, "unit": "mM"},
      {"measurement": "EC50", "setting": "cat T1R1/T1R3 receptor; EC50 (mM)", "result": 0.03, "unit": "mM"}
    ]},
    {"smiles": "Nc1ncnc2c1ncn2[C@H]1C[C@H](O)[C@@H](COP(=O)(O)O)O1", "note": "[2′-Deoxyadenosine 5′-monophosphate]", "values": [
      {"measurement": "Thres", "setting": "cat T1R1/T1R3 receptor", "result": 0.035, "unit": "mM"}
    ]},
    {"smiles": "Nc1ncnc2c1ncn2[C@H]1CC(OP(=O)(O)O)[C@@H](COP(=O)(O)O)O1", "note": "(stereo partly shown) [2′-Deoxyadenosine-3′,5′-O-bisphosphate]", "values": [
      {"measurement": "Thres", "setting": "cat T1R1/T1R3 receptor", "result": 0.005, "unit": "mM"}
    ]},
    {"smiles": "NC(=O)c1ncn(C2OC(COP(=O)(O)O)C(O)C2O)c1N", "note": "[5-Aminoimidazole-4-carboxamide-1-β-D-ribofuranosyl 5′-monophosphate]", "values": [
      {"measurement": "Thres", "setting": "cat T1R1/T1R3 receptor", "result": 0.200, "unit": "mM"}
    ]},
    {"smiles": "O=c1ccn([C@H]2C[C@H](O)[C@@H](COP(O)(O)=S)O2)c(=O)[nH]1", "note": "[2′-Deoxyuridine-5′-O-monophosphosphorothioate (5′-dUMPS)]", "values": [
      {"measurement": "Activity", "setting": "cat T1R1/T1R3 receptor", "result": "active"},
      {"measurement": "Max resp ΔF/F", "setting": "cat T1R1/T1R3 receptor", "result": "0.4200 ΔF/F"},
      {"measurement": "Max resp. (ΔF/F)", "setting": "cat T1R1/T1R3 receptor", "result": "0.4200 ΔF/F"},
      {"measurement": "Thres", "setting": "cat T1R1/T1R3 receptor", "result": 5.000, "unit": "mM"},
      {"measurement": "Threshold", "setting": "cat T1R1/T1R3 receptor", "result": 5.000, "unit": "mM"},
      {"measurement": "Max resp % of IMP", "setting": "cat T1R1/T1R3 receptor", "result": "43.4 % of IMP"}
    ]},
    {"smiles": "O=P(O)(O)OC[C@H]1O[C@@H](n2cnc3c(NC4CCCC4)ncnc32)[C@H](O)[C@@H]1O", "note": "[N6-Cyclopentyladenosine-5′-O-monophosphate]", "values": [
      {"measurement": "Thres", "setting": "cat T1R1/T1R3 receptor", "result": 0.013, "unit": "mM"}
    ]},
    {"smiles": "COc1ccc(/C=C/C(=O)NC2CCCCC2C)cc1", "note": "(stereo not shown) [(E)-3-(4-methoxyphenyl)-N-(2-methylcyclohexyl)acrylamide]", "values": [
      {"measurement": "Max resp ΔF/F +IMP (0.2 mM)", "setting": "T1R1/T1R3 receptor; in the presence of 0.2 mM IMP", "result": 1.7725},
      {"measurement": "Thres (mM) +IMP (0.2 mM)", "setting": "T1R1/T1R3 receptor; in the presence of 0.2 mM IMP", "result": 0.3, "unit": "mM"},
      {"measurement": "Max resp % of Ala +IMP (0.2 mM)", "setting": "T1R1/T1R3 receptor; in the presence of 0.2 mM IMP, relative to Ala", "result": 144.0, "unit": "%"},
      {"measurement": "Max resp ΔF/F +Alanine (20 mM)", "setting": "T1R1/T1R3 receptor; [2]", "result": 0.785},
      {"measurement": "Thres (mM) +Alanine (20 mM)", "setting": "T1R1/T1R3 receptor; [2]", "result": 3, "unit": "mM"},
      {"measurement": "Max resp % of IMP +Alanine (20 mM)", "setting": "T1R1/T1R3 receptor; in the presence of 20 mM alanine, relative to IMP", "result": 63.2, "unit": "%"}
    ]}
  ]
}
